Laboratory results reported in patent US8802597B2, “Herbicidal pyrimidines” (E I du Pont de Nemours and Company, priority 2003, dated 2014).
Read-outs that look alike come from different tables or passages of the source.

Key:
Test in all cases: Test C pre/postemergence
Assay type in all cases: in vivo
kochia (Kochia scoparia) = conditions: Bassia scoparia, pre-emergence, Preemergence, 250 g ai/ha; scale 0 to 100; read-out: Plant response rating, Kochia
How it was run: (§1)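 Injury scored visually 12–14 days after application on 0–100 scale (100 = complete control), relative to controls. Compounds, formulated with surfactant in non-phytotoxic solvent, applied to soil at planting (pre) or to 1- to 4-leaf plants 2–18 cm tall (post) in greenhouse.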

[1] = tested on: common ragweed (Ambrosia elatior); conditions: Ambrosia artemisiifolia; for pest or weed control at 31 g/ha: 31 g ai/ha; for pest or weed control at 62 g/ha: 62 g ai/ha; for pest or weed control at 125 g/ha: 125 g ai/ha; for pest or weed control at 250 g/ha: 250 g ai/ha
How it was run: as §1

[2] = tested on: pigweed (Amaranthus retroflexus); conditions: Amaranthus retroflexus; for pest or weed control at 31 g/ha: 31 g ai/ha; for pest or weed control at 62 g/ha: 62 g ai/ha; for pest or weed control at 125 g/ha: 125 g ai/ha; for pest or weed control at 250 g/ha: 250 g ai/ha
How it was run: as §1

[3] = tested on: common (oilseed) sunflower (Helianthus annuus); conditions: Helianthus annuus, pre-emergence, Preemergence, read-out: Plant response rating, Sunflower
How it was run: as §1

[4] = tested on: yellow nutsedge (Cyperus esculentus); conditions: Cyperus; for pest or weed control at 31 g/ha: 31 g ai/ha; for pest or weed control at 62 g/ha: 62 g ai/ha; for pest or weed control at 125 g/ha: 125 g ai/ha; for pest or weed control at 250 g/ha: 250 g ai/ha
How it was run: as §1

[5] = tested on: cocklebur (Xanthium strumarium); conditions: Xanthium strumarium; for pest or weed control at 31 g/ha: 31 g ai/ha; for pest or weed control at 62 g/ha: 62 g ai/ha; for pest or weed control at 125 g/ha: 125 g ai/ha
How it was run: as §1

[6] = tested on: woolly cupgrass (Eriochloa villosa); conditions: Eriochloa villosa; for pest or weed control at 31 g/ha: 31 g ai/ha; for pest or weed control at 62 g/ha: 62 g ai/ha; for pest or weed control at 125 g/ha: 125 g ai/ha
How it was run: as §1

[7] = post-emergence, Postemergence, scale 0 to 100 (0 no effect, 100 complete control), read-out: Ragweed plant response rating
[8] = pre-emergence, Preemergence, scale 0 to 100, 0 no effect, 100 complete control, read-out: Plant response rating, Ragweed
[9] = pre-emergence, Preemergence, scale 0 to 100, read-out: Plant response rating, Ragweed
[10] = post-emergence, Postemergence, scale 0 to 100 (0 no effect, 100 complete control), read-out: Pigweed plant response rating
[11] = pre-emergence, Preemergence, scale 0 to 100, 0 no effect, 100 complete control, read-out: Plant response rating, Pigweed
[12] = pre-emergence, Preemergence, scale 0 to 100, read-out: Plant response rating, Pigweed
[13] = post-emergence, Postemergence, scale 0 to 100 (0 no effect, 100 complete control), read-out: Nutsedge, Yellow plant response rating
[14] = pre-emergence, Preemergence, scale 0 to 100, 0 no effect, 100 complete control, read-out: Plant response rating, Nutsedge, Yellow
[15] = pre-emergence, Preemergence, scale 0 to 100, read-out: Plant response rating, Nutsedge, Yellow
[16] = post-emergence, Postemergence, scale 0 to 100 (0 no effect, 100 complete control), read-out: Cocklebur plant response rating
[17] = pre-emergence, Preemergence, scale 0 to 100, 0 no effect, 100 complete control, read-out: Plant response rating, Cocklebur
[18] = post-emergence, Postemergence, scale 0 to 100 (0 no effect, 100 complete control), read-out: Cupgrass, Woolly plant response rating
[19] = pre-emergence, Preemergence, scale 0 to 100, 0 no effect, 100 complete control, read-out: Plant response rating, Cupgrass, Woolly

CCOC(=O)c1nc(-c2ccc(Cl)cc2)nc(N)c1Cl [Compound 64, ethyl 6-amino-5-chloro-2-(4-chlorophenyl)-4-pyrimidinecarboxylate]
pest or weed control at 250 g/ha (kochia (Kochia scoparia)): 70%
pest or weed control at 31 g/ha ([1]; post-emergence, Postemergence, read-out: Plant response rating (scale of 0 to 100), Ragweed): 75%
pest or weed control at 62 g/ha [1, 7]: 80%
pest or weed control at 125 g/ha [1, 7]: 85%
pest or weed control at 250 g/ha ([1]; post-emergence, Postemergence, scale 0 to 100, read-out: Plant response rating, Ragweed): 90%
pest or weed control at 31 g/ha [1, 8]: 85%
pest or weed control at 62 g/ha [1, 8]: 85%
pest or weed control at 125 g/ha [1, 9]: 95%
pest or weed control at 250 g/ha [1, 9]: 100%
pest or weed control at 31 g/ha ([2]; post-emergence, Postemergence, read-out: Plant response rating (scale of 0 to 100), Pigweed): 85%
pest or weed control at 62 g/ha [2, 10]: 95%
pest or weed control at 125 g/ha [2, 10]: 100%
pest or weed control at 250 g/ha ([2]; post-emergence, Postemergence, scale 0 to 100, read-out: Plant response rating, Pigweed): 100%
pest or weed control at 31 g/ha [2, 11]: 10%
pest or weed control at 62 g/ha [2, 11]: 30%
pest or weed control at 125 g/ha [2, 12]: 100%
pest or weed control at 250 g/ha [2, 12]: 100%
pest or weed control at 31 g/ha ([3]; 31 g ai/ha, scale 0 to 100, 0 no effect, 100 complete control): 0%
pest or weed control at 62 g/ha ([3]; 62 g ai/ha, scale 0 to 100, 0 no effect, 100 complete control): 0%
pest or weed control at 125 g/ha ([3]; 125 g ai/ha, scale 0 to 100): 30%
pest or weed control at 250 g/ha ([3]; 250 g ai/ha, scale 0 to 100): 85%
pest or weed control at 31 g/ha ([4]; post-emergence, Postemergence, read-out: Plant response rating (scale of 0 to 100), Nutsedge, Yellow): 40%
pest or weed control at 62 g/ha [4, 13]: 50%
pest or weed control at 125 g/ha [4, 13]: 50%
pest or weed control at 250 g/ha ([4]; post-emergence, Postemergence, scale 0 to 100, read-out: Plant response rating, Nutsedge, Yellow): 50%
pest or weed control at 31 g/ha [4, 14]: 0%
pest or weed control at 62 g/ha [4, 14]: 0%
pest or weed control at 125 g/ha [4, 15]: 0%
pest or weed control at 250 g/ha [4, 15]: 10%
pest or weed control at 31 g/ha ([5]; post-emergence, Postemergence, read-out: Plant response rating (scale of 0 to 100), Cocklebur): 90%
pest or weed control at 62 g/ha [5, 16]: 90%
pest or weed control at 125 g/ha [5, 16]: 100%
pest or weed control at 31 g/ha [5, 17]: 0%
pest or weed control at 62 g/ha [5, 17]: 0%
pest or weed control at 125 g/ha ([5]; pre-emergence, Preemergence, scale 0 to 100, read-out: Plant response rating, Cocklebur): 5%
pest or weed control at 250 g/ha ([5]; pre-emergence, Preemergence, 250 g ai/ha, scale 0 to 100, read-out: Plant response rating, Cocklebur): 30%
pest or weed control at 31 g/ha ([6]; post-emergence, Postemergence, read-out: Plant response rating (scale of 0 to 100), Cupgrass, Woolly): 30%
pest or weed control at 62 g/ha [6, 18]: 40%
pest or weed control at 125 g/ha [6, 18]: 65%
pest or weed control at 31 g/ha [6, 19]: 0%
pest or weed control at 62 g/ha [6, 19]: 0%
pest or weed control at 125 g/ha ([6]; pre-emergence, Preemergence, scale 0 to 100, read-out: Plant response rating, Cupgrass, Woolly): 0%
pest or weed control at 250 g/ha ([6]; pre-emergence, Preemergence, 250 g ai/ha, scale 0 to 100, read-out: Plant response rating, Cupgrass, Woolly): 40%
